Measurements reported in patent publication US20230203043A1, “NOVEL IMIDAZOPYRAZINE DERIVATIVES” (Hoffmann-La Roche Inc., priority 2020, published 2023).
Structures can show the parent of a compound that is named as a salt.

system: Acinetobacter baumannii ATCC17961; assay: Antimicrobial susceptibility testing: 90% growth inhibitory concentration (IC90) determination in Iso-Sensitest broth, OD600 growth; format: cell-based; conditions: Acinetobacter baumannii, ATCC17961, 16 h, read-out: A. baumannii ATCC 17961 IC90 (uM), strain ATCC 17961, OD600 growth over 16 h
In short: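 Serial twofold dilution, 10 points, e.g. 50–0.097 μM final; ~5×10^(5) CFU/ml; 35±2° C, 16 h; kinetic OD600 every 20 min; IC90 from log-phase inhibition.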

SMILES | IC90
Cc1cc(Nc2nccn3c(-c4cn(CC#N)nc4C(F)(F)F)cnc23)ccc1C(=O)N1CCN(C(=O)[C@@H]2CCNC[C@H]2O)CC1 [Example 380, formic acid; 2-[4-[8-[4-[4-[(3S,4R)-3-hydroxypiperidine-4-carbonyl]piperazine-1-carbonyl]-3-methylanilino]imidazo[1,2-a]pyrazin-3-yl]-3-(trifluoromethyl)pyrazol-1-yl]acetonitrile] | 0.623 µM
Cc1cc(Nc2nccn3c(-c4cn(CC#N)nc4C(F)(F)F)cnc23)ccc1C(=O)N1CCN(C(=O)[C@H]2CCNC[C@@H]2O)CC1 [Example 382, formic acid; 2-[4-[8-[4-[4-[(3R,4S)-3-hydroxypiperidine-4-carbonyl]piperazine-1-carbonyl]-3-methylanilino]imidazo[1,2-a]pyrazin-3-yl]-3-(trifluoromethyl)pyrazol-1-yl]acetonitrile] | 0.749 µM
O=C(N[C@H]1CCNC1)N1CCN(C(=O)c2ccc(Nc3nccn4c(-c5c[nH]nc5C(F)(F)F)cnc34)cc2Cl)CC1 [Example 389, 4-[2-chloro-4-[[3-[3-(trifluoromethyl)-1H-pyrazol-4-yl]imidazo[1,2-a]pyrazin-8-yl]amino]benzoyl]-N-[(3S)-pyrrolidin-3-yl]piperazine-1-carboxamide formate] | 0.136 µM
NCCCNC(=O)N1CCN(C(=O)c2ccc(Nc3nccn4c(-c5c[nH]nc5C(F)(F)F)cnc34)cc2Cl)CC1 [Example 390, N-(3-aminopropyl)-4-[2-chloro-4-[[3-[3-(trifluoromethyl)-1H-pyrazol-4-yl]imidazo[1,2-a]pyrazin-8-yl]amino]benzoyl]piperazine-1-carboxamide formate] | 0.177 µM
O=C(N[C@@H]1CCNC1)N1CCN(C(=O)c2ccc(Nc3nccn4c(-c5c[nH]nc5C(F)(F)F)cnc34)cc2Cl)CC1 [Example 391, 4-[2-chloro-4-[[3-[3-(trifluoromethyl)-1H-pyrazol-4-yl]imidazo[1,2-a]pyrazin-8-yl]amino]benzoyl]-N-[(3R)-pyrrolidin-3-yl]piperazine-1-carboxamide formate] | 0.203 µM
NCCNC(=O)N1CCN(C(=O)c2ccc(Nc3nccn4c(-c5c[nH]nc5C(F)(F)F)cnc34)cc2Cl)CC1 [Example 392, N-(2-aminoethyl)-4-[2-chloro-4-[[3-[3-(trifluoromethyl)-1H-pyrazol-4-yl]imidazo[1,2-a]pyrazin-8-yl]amino]benzoyl]piperazine-1-carboxamide formate] | 0.208 µM
O=C(NCC1CNC1)N1CCN(C(=O)c2ccc(Nc3nccn4c(-c5c[nH]nc5C(F)(F)F)cnc34)cc2Cl)CC1 [Example 393, N-(azetidin-3-ylmethyl)-4-[2-chloro-4-[[3-[3-(trifluoromethyl)-1H-pyrazol-4-yl]imidazo[1,2-a]pyrazin-8-yl]amino]benzoyl]piperazine-1-carboxamide formate] | 0.239 µM
O=C(NC1CNC1)N1CCN(C(=O)c2ccc(Nc3nccn4c(-c5c[nH]nc5C(F)(F)F)cnc34)cc2Cl)CC1 [Example 394, N-(azetidin-3-yl)-4-[2-chloro-4-[[3-[3-(trifluoromethyl)-1H-pyrazol-4-yl]imidazo[1,2-a]pyrazin-8-yl]amino]benzoyl]piperazine-1-carboxamide formate] | 0.331 µM
NCCCC(=O)N1CCN(C(=O)c2ccc(Nc3nccn4c(-c5c[nH]nc5C(F)(F)F)cnc34)cc2Cl)CC1 [Example 399, 4-amino-1-[4-[2-chloro-4-[[3-[3-(trifluoromethyl)-1H-pyrazol-4-yl]imidazo[1,2-a]pyrazin-8-yl]amino]benzoyl]piperazin-1-yl]butan-1-one formate] | 0.214 µM
NCCC(=O)N1CCN(C(=O)c2ccc(Nc3nccn4c(-c5c[nH]nc5C(F)(F)F)cnc34)cc2Cl)CC1 [Example 400, 3-amino-1-[4-[2-chloro-4-[[3-[3-(trifluoromethyl)-1H-pyrazol-4-yl]imidazo[1,2-a]pyrazin-8-yl]amino]benzoyl]piperazin-1-yl]propan-1-one formate] | 0.217 µM
O=C(c1ccc(Nc2nccn3c(-c4c[nH]nc4C(F)(F)F)cnc23)cc1Cl)N1CCN(C(=O)C2CCNCC2)CC1 [Example 401, [2-chloro-4-[[3-[3-(trifluoromethyl)-1H-pyrazol-4-yl]imidazo[1,2-a]pyrazin-8-yl]amino]phenyl]-[4-(piperidine-4-carbonyl)piperazin-1-yl]methanone formate] | 0.273 µM
Cc1cc(Nc2nccn3c(-c4c[nH]nc4C(F)(F)F)cnc23)ccc1C(=O)N1CCN(C(=O)NC2CNC2)CC1 [Example 408, N-(azetidin-3-yl)-4-[2-methyl-4-[[3-[3-(trifluoromethyl)-1H-pyrazol-4-yl]imidazo[1,2-a]pyrazin-8-yl]amino]benzoyl]piperazine-1-carboxamide formate] | 0.481 µM
Cc1cc(Nc2nccn3c(-c4c[nH]nc4C(F)(F)F)cnc23)ccc1C(=O)N1CCN(C(=O)N[C@@H]2CCNC2)CC1 [Example 416, formic acid; 4-[2-methyl-4-[[3-[3-(trifluoromethyl)-1H-pyrazol-4-yl]imidazo[1,2-a]pyrazin-8-yl]amino]benzoyl]-N-[(3R)-pyrrolidin-3-yl]piperazine-1-carboxamide] | 0.441 µM

same assay, conditions: Acinetobacter baumannii, ATCC17961, 16 h, strain ATCC 17961, OD600 growth over 16 h, read-out: A. baumannii ATCC 17961 IC90

SMILES | IC90
O=C(N[C@H]1CCNC1)c1ccc(Nc2nccn3c(-c4c[nH]nc4C(F)(F)F)cnc23)cc1Cl [Example 378, 2-chloro-N-[(3S)-pyrrolidin-3-yl]-4-[[3-[3-(trifluoromethyl)-1H-pyrazol-4-yl]imidazo[1,2-a]pyrazin-8-yl]amino]benzamide] | 0.562 µM
O=C(N[C@@H]1CCNC1)c1ccc(Nc2nccn3c(-c4c[nH]nc4C(F)(F)F)cnc23)cc1Cl [Example 379, 2-chloro-N-[(3R)-pyrrolidin-3-yl]-4-[[3-[3-(trifluoromethyl)-1H-pyrazol-4-yl]imidazo[1,2-a]pyrazin-8-yl]amino]benzamide] | 0.576 µM
O=C(NC1CCN(C(=O)[C@@H]2C[C@@H](O)CN2)CC1)c1ccc(Nc2nccn3c(-c4c[nH]nc4C(F)(F)F)cnc23)cc1Cl [Example 381, 2-chloro-N-[1-[(2S,4R)-4-hydroxypyrrolidine-2-carbonyl]piperidin-4-yl]-4-[[3-[3-(trifluoromethyl)-1H-pyrazol-4-yl]imidazo[1,2-a]pyrazin-8-yl]amino]benzamide] | 0.63 µM
NC1CCC(NC(=O)c2ccc(Nc3nccn4c(-c5c[nH]nc5C(F)(F)F)cnc34)cc2Cl)CC1 (stereo not drawn) [Example 385, N-(4-aminocyclohexyl)-2-chloro-4-[[3-[3-(trifluoromethyl)-1H-pyrazol-4-yl]imidazo[1,2-a]pyrazin-8-yl]amino]benzamide] | 0.969 µM
CNC(=O)c1ccc(Nc2nccn3c(-c4c[nH]nc4C(F)(F)F)cnc23)cc1Cl [Example 388, 2-chloro-N-methyl-4-[[3-[3-(trifluoromethyl)-1H-pyrazol-4-yl]imidazo[1,2-a]pyrazin-8-yl]amino]benzamide] | 0.337 µM
CN(C)C(=O)c1ccc(Nc2nccn3c(-c4c[nH]nc4C(F)(F)F)cnc23)cc1Cl [Example 402, 2-chloro-N,N-dimethyl-4-[[3-[3-(trifluoromethyl)-1H-pyrazol-4-yl]imidazo[1,2-a]pyrazin-8-yl]amino]benzamide] | 0.384 µM
NC(=O)c1ccc(Nc2nccn3c(-c4c[nH]nc4C(F)(F)F)cnc23)cc1Cl [Example 404, 2-chloro-4-[[3-[3-(trifluoromethyl)-1H-pyrazol-4-yl]imidazo[1,2-a]pyrazin-8-yl]amino]benzamide] | 1.23 µM
O=C(NC1CNC1)c1ccc(Nc2nccn3c(-c4c[nH]nc4C(F)(F)F)cnc23)cc1Cl [Example 406, N-(azetidin-3-yl)-2-chloro-4-[[3-[3-(trifluoromethyl)-1H-pyrazol-4-yl]imidazo[1,2-a]pyrazin-8-yl]amino]benzamide] | 1.4 µM
Cc1cc(Nc2nccn3c(-c4c[nH]nc4C(F)(F)F)cnc23)ccc1C(=O)N1CCN(C(=O)NCC2CNC2)CC1 [Example 410, N-(azetidin-3-ylmethyl)-4-[2-methyl-4-[[3-[3-(trifluoromethyl)-1H-pyrazol-4-yl]imidazo[1,2-a]pyrazin-8-yl]amino]benzoyl]piperazine-1-carboxamide] | 1.42 µM
O=C(NC1CCNCC1)c1ccc(Nc2nccn3c(-c4c[nH]nc4C(F)(F)F)cnc23)cc1Cl [Example 413, 2-chloro-N-piperidin-4-yl-4-[[3-[3-(trifluoromethyl)-1H-pyrazol-4-yl]imidazo[1,2-a]pyrazin-8-yl]amino]benzamide] | 2.2 µM
O=C(NC1CCCNC1)c1ccc(Nc2nccn3c(-c4c[nH]nc4C(F)(F)F)cnc23)cc1Cl (stereo not drawn) [Example 414, 2-chloro-N-piperidin-3-yl-4-[[3-[3-(trifluoromethyl)-1H-pyrazol-4-yl]imidazo[1,2-a]pyrazin-8-yl]amino]benzamide] | 4.04 µM

same assay, conditions: strain ATCC 17961, OD600 growth over 16 h, read-out: A. baumannii ATCC 17961 IC90

SMILES | IC90
NC1CC(NC(=O)c2ccc(Nc3nccn4c(-c5c[nH]nc5C(F)(F)F)cnc34)cc2Cl)C1 (stereo not drawn) [Example 384, N-(3-aminocyclobutyl)-2-chloro-4-[[3-[3-(trifluoromethyl)-1H-pyrazol-4-yl]imidazo[1,2-a]pyrazin-8-yl]amino]benzamide] | 0.833 µM
NC1CC(NC(=O)c2ccc(Nc3nccn4c(-c5c[nH]nc5C(F)(F)F)cnc34)cc2Cl)C1 (stereo not drawn) [Example 403, N-(3-aminocyclobutyl)-2-chloro-4-[[3-[3-(trifluoromethyl)-1H-pyrazol-4-yl]imidazo[1,2-a]pyrazin-8-yl]amino]benzamide] | 0.398 µM
NC1CCC(NC(=O)c2ccc(Nc3nccn4c(-c5c[nH]nc5C(F)(F)F)cnc34)cc2Cl)CC1 (stereo not drawn) [Example 405, N-(4-aminocyclohexyl)-2-chloro-4-[[3-[3-(trifluoromethyl)-1H-pyrazol-4-yl]imidazo[1,2-a]pyrazin-8-yl]amino]benzamide] | 1.3 µM
